We go through 1 molecule from patent publication US9290740B2, “Use of basic fibroblast growth factor in the de-differentiation of animal connective tissue cells” (Worcester Polytechnic Institute, priority 2008, dated 2016).

For this assay, the system named is Nanog in CRL-2352 (ATCC) cells. Description: Effect of valproic acid on FGF2 de-differentiation (Nanog immunocytochemistry on glass coverslips). Format: cell-based, human. The note with it: 1.0 μM valproic acid with 4 ng/ml FGF2, glass coverslips, 5% O2, 6 days. The method, then: The effect of valproic acid on FGF2 de-differentiation was also studied. CRL-2352 (ATCC) cells (2000 cells per well in 24-well plates containing sterile 12 mm glass coverslips) were cultured in medium consisting of DMEM:Ham's F12 (60:40, MediaTech) with 10% Fetalclone III (Hyclone, Logan, Utah) and 4 ng/ml FGF2, with and without 1.0 μM valproic acid, in parallel cultures. Cultures were carried out in a 37° C. incubator in a humidified environment of 5% CO2, 5% O2, and 90% N2 for 6 days with medium changed at day 3. Cells were washed with DPBS and fixed with −20° C. methanol for 10 min, washed with PBS and processed for immunocytochemistry.

Structures are written as SMILES.

Consider `CCCC(CCC)C(=O)O` [valproic acid], for which the “nuclear staining for Nanog” value is “increased nuclear staining for Nanog”.
